Laboratory results as given in US20100104524A1, “COSMETIC COMPOSITION FOR SKIN WHITENING COMPRISING ARCTIIN, ARCTIGENIN OR THE MIXTURE THEREOF AS ACTIVE” (priority 2007, published 2010).
Like-named read-outs stand apart in the source and are kept apart here.

Columns and labels:
Assay type in all cases: cell-based, mice
tyrosinase [1] = test: Expression inhibition I of a melanin synthesis enzyme in melanocyte (tyrosinase band in gel); settings: for Intensity of tyrosinase band: 100 □/□, 3 days culture, lower intensity = higher inhibition of tyrosinase biosynthesis, controls 123 (Control Exp 1) and 211 (Control Exp 2); for Inhibiting effect on biosynthesis of tyrosinase (in words): compared to Control Example 2 containing only a melanocyte stimulating hormone
Description: (§1) α-MSH, for an experiment for melanin synthesis inhibition, was dissolved in 10% DMSO (Dimethyl sulfoxide), and was used as 1 mM solution. B-16 melanoma (ATCC CRL 6323) cell line (derived from mice) was inoculated into a DMEM medium including 4.5 g/L of glucose, 10% serum, and 1% antibiotics, and was subcultured in 75[…] T-flask under 5% CO2 and at 37° C. The subcultured melanoma cell line was cultured in 75[…] T-flask for 24 hours, and was treated with 0.05% Trypsin containing 0.02% EDTA. Then, cells were separated, were inoculated in 75[…] T-flask, and were further cultured for 6 hours. Herein, the number of cells was 1×10^7 cells/flask. Then, a melanocyte-stimulating hormone was diluted in a DMEM medium to a final concentration 100[…]. Next, each of arctiin, arctigenin, matairesinol, oleanolic acid, betulinic acid, rutin, and ursolic acid was diluted in the DMEM medium to a final concentration of 10-1000 □/□ to carry out treatment of melanoma cells, and then, the cells were further cultured at 37° C. for 5 days. Next, the medium was obtained to measure absorbance at 475 nm, and through comparison of melanin synthesis, IC50 (□/□), that is, the density for inhibiting melanin synthesis by 50%, was calculated.
An experiment was carried out in the same manner as described in Experimental Example 1 except that each of arctiin, arctigenin, matairesinol, oleanolic acid, betulinic acid, rutin, and ursolic acid was added, and culture was further carried out for 3 days to obtain cells. Also, in order to compare the expression inhibition of a melanin synthesis enzyme, experiments on Control Example 1 containing no forsythia suspensa active substance and Control Example 2 containing a melanocyte stimulating hormone were carried out. Obtained cells were washed with sodium phosphate buffer two times, were treated with 0.1% triton X-100, and were reacted by a sonicator for 30 seconds. From the reaction solution, cell precipitate and supernatant were separated by using a high-speed centrifuge at 12,000 rpm for 30 minutes at 4° C. From the separated supernatant, protein was separated by using electrophoresis, and was reacted in a reaction solution containing 0.2% DOPA solution for about 8 hours. Then, the production of tyrosinase in gel was measured.

[2] = test system: B-16 melanoma (ATCC CRL 6323) cell line; test: Melanin synthesis inhibition by forsythia suspensa active substances (IC50); settings: for IC50: Mus musculus, B16, 120 h, read-out: Melanin synthesis inhibition IC50; for Melanin synthesis inhibition (in words): compared to other substances of Forsythia suspensa
Description: as §1

[3] = test system: NIH/3T3 (ATCC CRL 1658) cell line; test: Cytotoxicity on fibroblast cell (MTT); settings: for Cell viability (%): 12 hours, MTT
Description: On a fibroblast cell, toxicity of arctiin, arctigenin, a 1:3 mixture of arctiin and arctigenin, and a 3:1 mixture of arctiin and arctigenin prepared by Preparation Examples 1 and 2 was measured, respectively. NIH/3T3 (ATCC CRL 1658) cell line (derived from mice) as a fibroblast cell, which was purchased, was inoculated into a DMEM medium including 4.5 g/L of glucose, 10% serum, and 1% antibiotics, and was subcultured in 75[…] T-flask at 37° C. The subcultured cell line was cultured under 5% CO2 for 24 hours, and then it was treated with 0.05% Trypsin containing 0.02% EDTA. Then, cells were separated, were inoculated into 96-well-flask (1×10^4 cells/well) and stabilized through culture for 6 hours. To the cells, each of arctiin, arctigenin, a 1:3 mixture of arctiin and arctigenin, and a 3:1 mixture of arctiin and arctigenin was added as noted in Table 5, and culture was further carried out for 12 hours. After the culture, 10[…] of MTT (3-(4,5-dimethylthiazol-2-yl) 2,5-diphenyl tetrazolin bromide) solution (5[…]/□) was added in each well, and culture was carried out for 4 hours. Then, 100[…] of DMSO (Dimethyl sulfoxide) solution was added, and absorbance was measured at O.D. 570 nm to calculate the cell viability. […] Herein, the cell viability of 100% was based on the absorbance in the case of no additional substance.

tyrosinase [4] = test: Expression inhibition II of a melanin synthesis enzyme from melanocyte (tyrosinase band in gel); settings: 100 □/□ substance with melanocyte stimulating hormone 100; 3 days culture; controls 123 and 211
Description: The subcultured melanoma cell line was cultured in 75[…] T-flask for 24 hours, and was treated with 0.05% Trypsin containing 0.02% EDTA. Then, cells were separated, were inoculated in 75[…] T-flask, and were further cultured for 6 hours. Herein, the number of cells was 1×10^7 cells/flask. Then, a melanocyte-stimulating hormone was diluted in a DMEM medium to a final concentration 100[…]. Next, each of arctiin, arctigenin, matairesinol, oleanolic acid, betulinic acid, rutin, and ursolic acid was diluted in the DMEM medium to a final concentration of 10-1000 □/□ to carry out treatment of melanoma cells, and then, the cells were further cultured at 37° C. for 5 days. […] An expression inhibiting effect of a melanin synthesis enzyme from melanocyte, which can be achieved by arctiin, arctigenin, or the mixture thereof, was determined. An experiment was carried out in the same manner as described in Experimental Example 1 except that each of arctiin, arctigenin, a 1:3 mixture of arctiin and arctigenin, and a 3:1 mixture of arctiin and arctigenin prepared by Preparation Examples 1 and 2 was added and culture was further carried out for 3 days to obtain cells. […] And then, the production of tyrosinase was measured in electrophoresis gel.

[5] = test system: B-16 melanoma (ATCC CRL 6323) cell line; test: Melanin synthesis inhibition (%) by arctiin, arctigenin and the mixture thereof; settings: n = 3, 5 days
Description: The subcultured melanoma cell line was cultured in 75[…] T-flask for 24 hours, and was treated with 0.05% Trypsin containing 0.02% EDTA. Then, cells were separated, were inoculated in 75[…] T-flask, and were further cultured for 6 hours. Herein, the number of cells was 1×10^7 cells/flask. Then, a melanocyte-stimulating hormone was diluted in a DMEM medium to a final concentration 100[…]. Next, each of arctiin, arctigenin, matairesinol, oleanolic acid, betulinic acid, rutin, and ursolic acid was diluted in the DMEM medium to a final concentration of 10-1000 □/□ to carry out treatment of melanoma cells, and then, the cells were further cultured at 37° C. for 5 days. […] An experiment of melanin synthesis inhibition was carried out in the same manner as described in EXPERIMENTAL EXAMPLE 1, except the following processes. […] Next, the medium was obtained to measure absorbance at 475 nm, and melanin synthesis was compared. A melanin synthesis inhibition (%) was calculated according to Mathematical Formula 1, with a control value of cell cultures including only a melanocyte stimulating hormone. […] [formula]

[6] = α-MSH-stimulated B-16 melanoma, 5 days, medium absorbance at 475 nm

Question: For `C=C(C)[C@@H]1CC[C@]2(C(=O)O)CC[C@]3(C)[C@H](CC[C@@H]4[C@@]5(C)CC[C@H](O)C(C)(C)[C@@H]5CC[C@]43C)[C@@H]12` [Betulinic acid], which “Intensity of tyrosinase band” value (tyrosinase [1]) is on record?
Answer: The value was 170.

Question: What about the IC50 [2, 6] of the same compound?
Answer: Its IC50 is < 500 µg/mL.

Question: `COc1cc(CC2C(=O)OCC2Cc2ccc(OC)c(OC)c2)ccc1O` (stereo not shown) [Arctigenin, 4-[(3,4-Dimethoxyphenyl)methyl]dihydro-3-[(4-hydroxy-3-metoxyphenyl)methyl]-2(3H)-furanone] was tested. Which “Intensity of tyrosinase band” value (tyrosinase [1]) did it give?
Answer: The value was 135.

Question: What about the “Inhibiting effect on biosynthesis of tyrosinase (in words)” value (tyrosinase [1]) of the same compound?
Answer: The value was “significantly high inhibiting effects”.

Question: What about the “Toxicity determination on cells” value ([3]; criteria of Table 6) of the same compound?
Answer: The value was “non-toxic”.

Question: What about the “Cell viability (%)” value ([3]; final concentration 20 □/□) of the same compound?
Answer: The value was 101.2%.

Question: And the “Cell viability (%)” value ([3]; final concentration 60 □/□)?
Answer: Its value is 101.0%.

Question: And the “Cell viability (%)” value ([3]; final concentration 100 □/□)?
Answer: Its value is 99.8%.

Question: What about the “Cell viability (%)” value ([3]; final concentration 140 □/□) of the same compound?
Answer: Its value is 99.6%.

Question: What about the “Cell viability (%)” value ([3]; final concentration 180 □/□) of the same compound?
Answer: Its value is 99.7%.

Question: What about the “Strength of tyrosinase band” value (tyrosinase [4]) of the same compound?
Answer: Its value is 135.

Question: What about the “Melanin synthesis inhibition (in words)” value [2] of the same compound?
Answer: Its value is “most effective”.

Question: And the “Melanin synthesis inhibition (%)” value ([5]; final concentration 60 □/□)?
Answer: The value was 66.8%.

Question: And the “Melanin synthesis inhibition (%)” value ([5]; final concentration 100 □/□)?
Answer: Its value is 79.6%.

Question: And the “Melanin synthesis inhibition (%)” value ([5]; final concentration 140 □/□)?
Answer: The value was 81.3%.

Question: And the “Melanin synthesis inhibition (%)” value ([5]; final concentration 180 □/□)?
Answer: Its value is 84.3%.

Question: Which results are given for `COc1cc(C[C@H]2COC(=O)[C@@H]2Cc2ccc(O)c(OC)c2)ccc1O` [Matairesinol]?
Answer: Intensity of tyrosinase band (tyrosinase [1]): 180; IC50 [2, 6]: < 200 µg/mL

Question: How did the “Intensity of tyrosinase band” value (tyrosinase [1]) turn out when `CC1(C)CC[C@]2(C(=O)O)CC[C@]3(C)C(=CC[C@@H]4[C@@]5(C)CC[C@H](O)C(C)(C)[C@@H]5CC[C@]43C)[C@@H]2C1` [Oleanolic acid] was run?
Answer: Its value is 200.

Question: What about the IC50 [2, 6] of the same compound?
Answer: The IC50 was < 1000 µg/mL.

Question: How did the “Intensity of tyrosinase band” value (tyrosinase [1]) turn out when `C[C@H]1[C@H](C)CC[C@]2(C(=O)O)CC[C@]3(C)C(=CC[C@@H]4[C@@]5(C)CC[C@H](O)C(C)(C)[C@@H]5CC[C@]43C)[C@H]12` [Ursolic acid] was run?
Answer: Its value is 180.

Question: And the IC50 [2, 6]?
Answer: The IC50 was < 500 µg/mL.

Question: With `COc1ccc(CC2COC(=O)C2Cc2ccc(O[C@@H]3O[C@H](CO)[C@@H](O)[C@H](O)[C@H]3O)c(OC)c2)cc1OC` (stereo partly shown) [Arctiin, 4-[(3,4-Dimethoxyphenyl)methyl]dihydro-3-[(4-Glucose-3-metoxyphenyl)methyl]-2(3H)-furanone] as the compound, how does the “Intensity of tyrosinase band” value (tyrosinase [1]) read?
Answer: The value was 155.

Question: And the “Inhibiting effect on biosynthesis of tyrosinase (in words)” value (tyrosinase [1])?
Answer: Its value is “significantly high inhibiting effects”.

Question: And the “Cell viabilities (range over tested concentrations)” value [3]?
Answer: The value was 94-100%.

Question: What about the “Toxicity determination on cells” value [3] of the same compound?
Answer: Its value is “non-toxic”.

Question: And the “Strength of tyrosinase band” value (tyrosinase [4])?
Answer: The value was 155.

Question: What about the “Melanin synthesis inhibition (in words)” value [2] of the same compound?
Answer: Its value is “most effective”.

Question: What about the “Melanin synthesis inhibition (%)” value ([5]; final concentration 60 □/□) of the same compound?
Answer: The value was 67.3%.

Question: And the “Melanin synthesis inhibition (%)” value ([5]; final concentration 100 □/□)?
Answer: The value was 78.5%.

Question: What about the “Melanin synthesis inhibition (%)” value ([5]; final concentration 140 □/□) of the same compound?
Answer: The value was 80.3%.

Question: What about the “Melanin synthesis inhibition (%)” value ([5]; final concentration 180 □/□) of the same compound?
Answer: Its value is 84.2%.

Question: `C[C@@H]1O[C@@H](OC[C@H]2O[C@@H](Oc3c(-c4ccc(O)c(O)c4)oc4cc(O)cc(O)c4c3=O)[C@H](O)[C@@H](O)[C@@H]2O)[C@H](O)[C@H](O)[C@H]1O` [Rutin] was tested. Which “Intensity of tyrosinase band” value (tyrosinase [1]) did it give?
Answer: The value was 150.

Question: What about the IC50 [2] of the same compound?
Answer: Its IC50 is < 500 µg/mL.
